Literature values in US12324860B2, “Methods of treating central nervous system disorders via administration of nanoparticles of an mTOR inhibitor and an albumin” (Abraxis BioScience, LLC, priority 2018, dated 2025).
Like-named read-outs stand apart in the source and are kept apart here. Blank lines part the entries; values can stand above or below the compound they belong to.

Tests used:
[1] = in vivo
[2] = preclinical studies
[3] = retrospective analysis (Lorgis et al. 2012)

Compound: COc1ccc(COc2cc3oc(=O)c4cc(C(C)O)ccc4c3cc2OC)cc1 (stereo not shown) [Palomid 529]
- affinity for ABCB1/ABCG2 (ABCB1/ABCG2): lacks affinity
- brain penetration [1]: good brain penetration

- brain penetration [2]: poor brain penetration
Compound: CO[C@H]1C[C@@H]2CC[C@@H](C)[C@@](O)(O2)C(=O)C(=O)N2CCCC[C@H]2C(=O)O[C@H]([C@H](C)C[C@@H]2CC[C@@H](OCCO)[C@H](OC)C2)CC(=O)[C@H](C)/C=C(\C)[C@@H](O)[C@@H](OC)C(=O)[C@H](C)C[C@H](C)/C=C/C=C/C=C/1C [everolimus]

Compound: bevacizumab: recombinant humanized anti-VEGF antibody
- PFS and OS with low dose intensity (<5 mg/kg/week) versus normal dose intensity at 10 mg/kg [3]: improved PFS and OS
